Reference: US7579371B2, “Methods of using [3.2.0] heterocyclic compounds and analogs thereof” (Nereus Pharmaceuticals, Inc., priority 2004, dated 2009)
Several values for one entry are separate records, joined by “and”; a condition that tells them apart may be missing. Equal values may be shown once.

Legend:
[1] = system: B16-F10; assay: Cell growth inhibition assay (resazurin, 48 h); type: cell-based, mouse; conditions: B16-F10, 48 h
Method: RPMI 8226 (CCL-155), HT-29 (HTB-38), and B16-F10 (CRL-6475) cells were purchased from ATCC. RPMI 8226 cells were maintained in RPMI 1640 media supplemented with 10% (v/v) FBS, 2 mM L-glutamine, 1 mM sodium pyruvate and Penicillin/Streptomycin at 100 IU/ml and 100 μg/ml, respectively. HT-29 cells were maintained in McCoys 5A supplemented with 10% (v/v) FBS, 2 mM L-glutamine, 1 mM sodium pyruvate, 1% (v/v) non-essential amino acids, 10 mM HEPES and Penicillin/Streptomycin at 100 IU/ml and 100 μg/ml, respectively. B16-F10 cells were maintained in DMEM supplemented with 10% (v/v) FBS, 2 mM L-glutamine, 10 mM HEPES and Penicillin/Streptomycin at 100 IU/ml and 100 μg/ml, respectively.
RPMI 8226 cells were seeded at 2×10^4 cells/well in 90 μl RPMI media containing 10% (v/v) FBS or 1% (v/v) FBS into 96 well black-walled, clear-bottom tissue culture plates. […] Formulae II-16, II-17 and Formula II-18 were serially diluted in media containing 1% or 10% FBS and added in triplicate to the test wells. […] The final concentration of Formula II-18 ranged from 2 μM to 630 pM.

[2] = system: MIA PaCa-2; assay: Cell growth inhibition assay (resazurin, 48 h); type: cell-based; conditions: Homo sapiens, MIA PaCa-2, 48 h
[3] = system: CCD-27sk; assay: Cytotoxic activity, 48 h, normal human fibroblasts; type: cell-based
[4] = biological target: T1, human erythrocyte 20S proteasomes, chymotrypsin-like activity (Homo sapiens, UniProt P28074); assay: Chymotrypsin-like activity of human erythrocyte 20S proteasomes; type: biochemical
T1 construct: Human erythrocyte 20S proteasomes were obtained from BIOMOL (Cat. # SE-221); purchased BIOMOL SE-221; host or cells: human erythrocytes

[5] = system: NF-κB; assay: NF-κB-mediated luciferase reporter gene assay, HEK293 NF-κB/Luc cells, TNF-α stimulation; type: cell-based; conditions: Homo sapiens, HEK293, read-out: EC50, NF-κB-mediated luciferase activity, 1 hr pretreatment, 6 hours TNF-α
Method: The HEK293 NF-κB/luciferase reporter cell line is a derivative of the human embryonic kidney cell line (ATCC; CRL-1573) and carries a luciferase reporter gene under the regulation of 5× NF-κB binding sites. […] When performing the luciferase assay, the DMEM basal medium was replaced with phenol-red free DMEM basal medium and the G418 was omitted.
For NF-κB-mediated luciferase assays, HEK293 NF-κB/luciferase cells were seeded at 1.5×10^4 cells/well in 90 μl phenol-red free DMEM complete medium into Corning 3917 white opaque-bottom tissue culture plates. For Formulae II-2, II-4, II-5A and II-18, a 400 μM starting dilution was made in 100% DMSO and this dilution was used to generate an 8-point half log dilution series. […] For formula II-20, a 2.5 mM or 8 mM starting dilution was made in 100% DMSO and the final test concentrations ranged from 6.3 μM to 2.0 nM or 20 μM to 6.3 nM respectively. The plates were returned to the incubator for 1 hour. After 1 hr pretreatment, 10 μl of a 50 ng/ml TNF-α solution, prepared in the phenol-red free DMEM medium was added, and the plates were incubated for an additional 6 hours.
At the end of the TNF-α stimulation, 100 μl of Steady Lite HTS luciferase reagent (Packard Bioscience) was added to each well and the plates were left undisturbed for 10 min at room temperature before measuring the luciferase activity. The relative luciferase units (RLU) were measured by using a Fusion microplate fluorometer (Packard Bioscience).
NF-κB inducible luciferase activity was measured at 6 hours.

[6] = system: multiple myeloma cells; assay: Transwell migration assay, VEGF-induced migration; type: cell-based
Method: The compounds disclosed herein inhibit angiogenesis. […] The other compounds disclosed herein are tested in a transwell mighration assay and inhibit migration.

C[C@@]12OC(=O)[C@]1([C@@H](O)[C@@H]1C=CCCC1)NC(=O)[C@@H]2CCCl [Formula II-16, Salinosporamide A]
EC50 [1]: 47 ± 20 nM | EC50 ([1]; Mus musculus): 33 nM | EC50 [2]: 46 nM | EC50 [3]: 196 nM | EC50 [4]: ~3 nM and ~4 nM | EC50 [5]: ~7 nM | VEGF-induced migration of multiple myeloma cells [6]: blocked
